A short description of data set [1]: Cytotoxicity against mouse Peritoneal macrophage. The data set is classed as toxicity, cell-based. The following applies: peritoneal macrophages.
The test system of data set [2] is Schistosoma mansoni. Nature of the data set: Antischistosomal activity against adult stage of Schistosoma mansoni assessed assessed as inhibition of parasite death. The data set is classed as functional, organism-based.
For data set [3], the system named is Bacillus subtilis. Nature of the data set: Antibacterial activity against Bacillus subtilis NCIB 3610 assessed as zone of inhibition incubated for 24 hrs by agar well diffusion method. The data set is classed as functional. (A growth-free zone around the sample is the usual read-out of agar diffusion tests.)
Data set [4] concerns Klebsiella pneumoniae. Nature of the data set: Antibacterial activity against Klebsiella pneumoniae NCIB 418 assessed as zone of inhibition incubated for 24 hrs by agar well diffusion method. The data set is classed as functional.
The test system of data set [5] is Shigella dysenteriae. Nature of the data set: Antibacterial activity against Shigella dysenteriae clinical isolate assessed as zone of inhibition incubated for 24 hrs by agar well diffusion method. The format is functional.
The subject of data set [6] is Pseudomonas aeruginosa. Nature of the data set: Antibacterial activity against Pseudomonas aeruginosa NCIB 950 assessed as zone of inhibition incubated for 24 hrs by agar well diffusion method. The data set is classed as functional.
Data set [7] relates to Pseudomonas fluorescens. Nature of the data set: Antibacterial activity against Pseudomonas fluorescens NCIB 3756 assessed as zone of inhibition incubated for 24 hrs by agar well diffusion method. The data set is classed as functional.
The subject of data set [8] is Escherichia coli. Nature of the data set: Antibacterial activity against Escherichia coli NCIB 86 assessed as zone of inhibition incubated for 24 hrs by agar well diffusion method. The format is functional.
Data set [9] has as its system Candida albicans. Nature of the data set: […] activity against Candida albicans clinical isolate assessed as zone of inhibition incubated for 24 hrs by agar well diffusion method. The format is functional.
The test system of data set [10] is Bacillus cereus. Nature of the data set: Antibacterial activity against Bacillus cereus NCIB 6349 assessed as zone of inhibition incubated for 24 hrs by agar well diffusion method. The format is functional.
Data set [11] relates to Bacillus anthracis. Nature of the data set: Antibacterial activity against clinical isolate Bacillus anthracis assessed as zone of inhibition incubated for 24 hrs by agar well diffusion method. The data set is classed as functional.
Data set [12] has as its system Staphylococcus aureus. Nature of the data set: Antibacterial activity against Staphylococcus aureus NCIB 8588 assessed as zone of inhibition incubated for 24 hrs by agar well diffusion method. The format is functional.
Data set [13] has as its system Geobacillus stearothermophilus. Nature of the data set: Antibacterial activity against Geobacillus stearothermophilus NCIB 8222 assessed as zone of inhibition incubated for 24 hrs by agar well diffusion method. The format is functional.
A short description of data set [14]: Cytotoxicity against human C8166 cells assessed as reduction in cell viability by MTT assay. The data set is classed as toxicity, cell-based.
Data set [15] deals with Human immunodeficiency virus 1. Nature of the data set: Antiviral activity against HIV-1 infected in human C8166 cells assessed as reduction in virus-induced cytopathic effect by MTT assay. The format is functional, organism-based. The following applies: Human immunodeficiency virus 1, C8166.
The test system of data set [16] is NB-4. Nature of the data set: Cytotoxicity against human NB-4 cells assessed as reduction in cell viability by MTT assay. The data set is classed as functional, cell-based. (Tetrazolium dyes change colour on reduction, which living cells bring about.)
Data set [17] concerns SH-SY5Y. Nature of the data set: Cytotoxicity against human SH-SY5Y cells assessed as reduction in cell viability by MTT assay. The format is functional, cell-based.
Data set [18] can be described thus: Selectivity index, ratio of CC50 for cytotoxicity against human C8166 cells to EC50 for antiviral activity against HIV-1 infected in human C8166 cells. The settings on record: read-out: Ratio CC50/EC50. The data set is classed as toxicity, cell-based.
The test system of data set [19] is Toxoplasma gondii. Nature of the data set: Antiparasitic activity against Toxoplasma gondii RH type 1 infected in human HFF cells assessed as inhibition of parasite proliferation incubated for 30 hrs by Hoechst-33342, YFP2 and Alexa-488 dye based high content imaging analysis. The settings on record: RH type 1, HFF. The format is functional, organism-based.
Data set [20] concerns the target Peroxisome proliferator-activated receptor gamma (Homo sapiens, UniProt P37231). Nature of the data set: Binding affinity to PPARgamma (unknown origin) by competitive binding assay.
The subject of data set [21] is Leishmania major. Nature of the data set: Antileishmanial activity against promastigote stage Leishmania major MHOM/JL/80/Friedlin overexpressing ABCI4 infected in human THP-1 cells assessed as reduction in parasite growth incubated for 72 hrs by MTT assay. The following applies: THP-1, 72 h. The format is functional, organism-based.
For data set [22], the system named is Leishmania major. Nature of the data set: Antileishmanial activity against promastigote stage Leishmania major MHOM/JL/80/Friedlin overexpressing ABCI4 infected in human THP-1 cells assessed as fold change in reduction in parasite growth incubated for 72 hrs in presence of SbIII by MTT assay. The data set is classed as functional.
The subject of data set [23] is THP-1. Nature of the data set: Cytotoxicity against human THP-1 cells assessed as reduction in cell viability incubated for 72 hrs by MTT assay. The settings on record: THP-1, 72 h. The format is functional, cell-based.
Data set [24] concerns Trypanosoma brucei brucei. Nature of the data set: Antitrypanosomal activity against Trypanosoma brucei brucei assessed as reduction in parasite viability by resorufin based fluorescence assay. The data set is classed as functional, organism-based.
A short description of data set [25]: Cytotoxicity against human HeLa cells assessed as reduction in cell viability. The format is toxicity, cell-based.
For data set [26], the system named is PMNL. Nature of the data set: Anti-inflammatory activity in human polymorphonuclear neutrophils assessed as reduction in cell movement incubated for 24 hrs by fluorescence analysis. The format is functional, cell-based.
In data set [27] the target is Amyloid-beta precursor protein (Homo sapiens, UniProt P05067). Nature of the data set: Binding affinity to human brain amyloid-beta fibril.
Amyloid-beta precursor protein, sequence (P05067 whole entry): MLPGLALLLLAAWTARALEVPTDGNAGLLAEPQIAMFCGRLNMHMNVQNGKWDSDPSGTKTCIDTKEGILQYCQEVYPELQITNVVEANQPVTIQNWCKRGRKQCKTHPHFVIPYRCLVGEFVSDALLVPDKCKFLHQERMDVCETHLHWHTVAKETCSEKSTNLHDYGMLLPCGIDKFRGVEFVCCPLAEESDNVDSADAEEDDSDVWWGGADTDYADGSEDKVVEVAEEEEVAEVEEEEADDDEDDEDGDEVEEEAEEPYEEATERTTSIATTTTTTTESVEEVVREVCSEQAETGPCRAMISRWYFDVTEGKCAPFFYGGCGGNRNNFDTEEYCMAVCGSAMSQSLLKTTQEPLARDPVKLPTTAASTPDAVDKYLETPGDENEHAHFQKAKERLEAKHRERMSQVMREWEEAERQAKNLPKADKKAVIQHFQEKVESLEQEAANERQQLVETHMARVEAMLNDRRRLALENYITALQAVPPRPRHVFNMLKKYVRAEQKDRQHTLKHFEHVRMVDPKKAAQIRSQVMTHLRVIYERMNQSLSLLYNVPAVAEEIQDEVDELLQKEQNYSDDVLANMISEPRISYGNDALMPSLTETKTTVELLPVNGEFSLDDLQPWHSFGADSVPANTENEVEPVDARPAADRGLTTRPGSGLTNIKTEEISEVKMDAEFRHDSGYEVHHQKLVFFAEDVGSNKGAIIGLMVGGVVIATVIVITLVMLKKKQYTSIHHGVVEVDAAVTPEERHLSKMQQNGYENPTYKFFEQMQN
The test system of data set [28] is RAW264.7. Nature of the data set: cells. The following applies: Mus musculus.
Data set [29] deals with THP-1. Nature of the data set: Antiinflammatory activity against human THP-1 cells assessed as inhibition of LPS-stimulated iNOS expression at 50 uM incubated for 1 hrs followed by LPS stimulation for 4 hrs by ELISA. The format is functional. The following applies: time 5 hrs. Background: ELISA stands for enzyme-linked immunosorbent assay.
The subject of data set [30] is THP-1. Nature of the data set: Antiinflammatory activity against human THP-1 cells assessed as inhibition of LPS-stimulated TNF-alpha production at 40 uM incubated for 1 hrs followed by LPS stimulation for 4 hrs by ELISA. The data set is classed as functional. The following applies: time 5 hrs.
Data set [31] deals with Leishmania infantum. Nature of the data set: Antileishmanial activity against luciferase expressing […] amastigote stage of Leishmania infantum MOM/MA671/TMAP263 infected in PMA differentiated human THP-1 macrophage cells assessed as reduction in parasite growth incubated for 72 hrs by luminescence analysis. The data set is classed as functional, organism-based. The settings on record: MOM/MA671/TMAP263, THP-1, 72 h.

Data set [32] can be described thus: Selectivity index, ratio of IC50 for cytotoxicity against PMA differentiated human THP-1 cells to IC50 for antileishmanial activity against luciferase expressing axenic amastigote stage of Leishmania infantum MOM/MA671/TMAP263 infected in PMA differentiated human THP-1 macrophage cells. The data set is classed as toxicity, cell-based. The settings on record: PMA-differentiated THP-1 cells, read-out: Ratio IC50.

Data set [33] concerns Plasmodium berghei. Nature of the data set: Antimalarial activity against liver stage transgenic Plasmodium berghei (PbGFP-Luccon) infected in human Huh-7 cells assessed as reduction in parasite load incubated for 48 hrs by firefly luciferase assay. The data set is classed as functional, organism-based. The settings on record: Huh-7, 48 h.
Data set [34] has as its system HEK-293T. Nature of the data set: Cytotoxicity against human HEK293T cells assessed as reduction in cell viability incubated for 48 hrs by Alamar Blue assay. The data set is classed as functional, cell-based.
Data set [35] concerns Plasmodium falciparum. Nature of the data set: Antimalarial activity against chloroquine-resistant erythrocyte stage Plasmodium falciparum assessed as growth inhibition incubated for 72 hrs by SYBR Green I dye based fluorescence analysis. The format is functional, organism-based.
A short description of data set [36]: Cytotoxicity against mouse Peritoneal macrophage incubated for 24 hrs by MTT assay. The data set is classed as toxicity, cell-based. The following applies: peritoneal macrophages.
In data set [37] the test system is Schistosoma mansoni. Nature of the data set: Antischistosomal activity against adult stage of Schistosoma mansoni BH assessed assessed as inhibition of parasite death at 25 uM incubated for 24 hrs by light microscopy. The format is functional.

In general, CC50 refers to the concentration that lowers cell viability or growth by half. For orientation: EC50 means the concentration giving half of the maximal effect. By IC50 is commonly meant the concentration that inhibits the measured activity by half. Usually Kd stands for a measure of binding affinity in units of concentration. Read a low Kd as tighter binding. A word on the inhibition: it is the relative decrease from the control value, in per cent.

Peroxisome proliferator-activated receptor gamma, sequence (P37231 whole entry): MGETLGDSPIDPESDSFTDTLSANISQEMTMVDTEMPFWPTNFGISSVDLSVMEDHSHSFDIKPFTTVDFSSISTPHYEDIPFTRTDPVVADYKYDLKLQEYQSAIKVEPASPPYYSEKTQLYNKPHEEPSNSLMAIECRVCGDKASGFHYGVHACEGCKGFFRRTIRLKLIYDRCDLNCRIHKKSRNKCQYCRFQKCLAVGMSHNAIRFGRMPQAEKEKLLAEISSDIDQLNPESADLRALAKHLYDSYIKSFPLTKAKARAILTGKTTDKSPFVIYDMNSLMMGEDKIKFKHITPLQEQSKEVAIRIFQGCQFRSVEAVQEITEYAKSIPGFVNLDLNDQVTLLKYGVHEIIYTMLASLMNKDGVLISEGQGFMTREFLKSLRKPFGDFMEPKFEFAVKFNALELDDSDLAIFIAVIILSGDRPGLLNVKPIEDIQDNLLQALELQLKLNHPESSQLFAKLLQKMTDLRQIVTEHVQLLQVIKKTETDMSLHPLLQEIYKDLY

With `Cn1cc(/C=C2\Oc3ccccc3C2=O)c2ccccc21`, the CC50 in data set [1] was greater than 150 µM. Also, the EC50 in data set [2] was 34 µM.

As to `COc1ccc2c(c1)O/C(=C\c1cn(-c3ccccc3)nc1-c1cccs1)C2=O`, the “inhibition zone (IZ)” value in data set [3], in [4], in data set [5], in data set [6], in data set [7] and in data set [8] was 13 mm in each case. Also, the “inhibition zone (IZ)” value in data set [9], in [10], in data set [11], in [12] and in data set [13] was 13 mm each time.

Regarding `COc1cc2c(cc1O)C(=O)/C(=C/c1ccc(C(C)=O)cc1)O2`, the CC50 in data set [14] is greater than 200 µM. Further, the 50% inhibitory concentration (IC50) worked out at 2.4 µM in data set [15], 3.4 µM in [16] and 3.5 µM in data set [17]. Besides, the selectivity ratio in [18] stood at 82.

Regarding `O=C1/C(=C/c2cn(CC3CCCCC3)c3ccccc23)Oc2cc(O)cc(O)c21`, the IC50 in data set [19] was determined as 10 µM.

Take `COc1cc2c(cc1OC)C(=O)/C(=C/c1ccccc1OCCc1cccs1)C2`: the IC50 in data set [20] was determined as 0.62 µM.

`COc1ccc(OC)c(/C=C2\Oc3cc(O)cc(O)c3C2=O)c1`: the EC50 in [21] was 190 µM; in [23], 350 µM. For the same molecule, the “fold change (FC)” value in data set [22] is recorded as 6.

As for `O=C1/C(=C/c2cccnc2Cl)Cc2ccccc21`, in data set [24], the IC50 was found to be 0.55 µM. Also, the CC50 in data set [25] is greater than 100 µM.

Consider `CCOC(OCC)c1ccc(/C=C2\Cc3ccccc3C2=O)cc1`, for which, in [26], the IC50 is 7 µM.

In [27], `O=C1/C(=C/c2ccc(-c3ccc(CO)cc3)s2)Cc2ccccc21` registered a Kd of 0.39 µM. The concentration for half-maximal inhibition (IC50) in data set [28] was found to be 4 µM.

Turning to `O=C1/C(=C/c2ccc(CO)o2)Oc2ccccc21`, in [29], the inhibition at 50 µM was 30%. In addition, in data set [30], the inhibition at 40 µM worked out at 50%.

As to `COc1cc(OC)c2c(c1)O/C(=C\c1ccccc1OC)C2=O`, the EC50 in data set [31] was 1.3 µM. For the same molecule, the selectivity ratio in data set [32] is 57.5.

Turning to `O=C1/C(=C/c2cccc(-c3ccc(C(F)(F)F)cc3)c2)Nc2ccccc21`, the values for the EC50 in data set [33], in [34] and in data set [35] were greater than 100 µM, 0.81 µM and 0.11 µM, respectively.

As for `O=C1/C(=C/c2cccs2)Oc2ccccc21`, the CC50 at 24 h in data set [36] was greater than 150 µM. Also, the inhibition at 25 µM in data set [37] came out at 50%.
